From US20100105641A1, “Oral Contraceptive Spray” (priority 2006, published 2010)
Each block holds one compound with its values, some of them ahead of it.

Tests used:
[1] = Experimental: Solutions were prepared essentially according to the procedure as described in Example 1. The solubility of each one of the active ingredients desogestrel, 3-β-hydroxydesogestrel, 3-keto desogestrel and ethinyl estradiol in these solutions was tested.
[2] = human, in vivo
Experimental: Sixteen healthy female subjects were treated with 0.1 ml of the oral spray as described in Example 1 or with Marvelon® tablets (150 μg desogestrel, 30 μg ethinyl estradiol) in a cross over design. The spray was administered sublingually. Marvelon® was ingested. Serum concentration versus time profiles were obtained for etonogestrel and plasma concentration versus time profiles were obtained for ethinyl estradiol. FIGS. 2, 3, 4 and 5 show the average values of the serum/plasma concentrations versus time profiles.
This leads to the conclusion that a lower dose of either etonogestrel, or ethinyl estradiol, or both is possible for oral mucosal administration.

[3] = Cross-over study in sixteen healthy female subjects: sublingual oral spray (75 μg etonogestrel) vs ingested Cerazette tablets, serum concentration versus time profiles; format: in vivo, human; details: FIGS. 6 and 7; 75 μg etonogestrel spray vs Cerazette tablet
Experimental: Sixteen healthy female subjects were treated with 0.1 ml of oral spray comprising the liquid as depicted in table 6 to administer 75 μg etonogestrel, or with Cerazette® tablets (75 μg desogestrel) in a cross over design. The spray has been administered sublingually. Cerazette® has been ingested. Serum concentration versus time profiles were obtained for etonogestrel.
This leads to the conclusion that a lower dose of either etonogestrel is possible for oral mucosal administration to achieve a similar pharmacological effect.

[4] = exposure of etonogestrel after oral ingestion as its prodrug desogestrel; cited from earlier work

Compound: C#C[C@]1(O)CC[C@H]2[C@@H]3CCC4=C[C@@H](O)CC[C@@H]4[C@H]3C(=C)C[C@@]21CC [3-β-Hydroxy-desogestrel, 3-β-hydroxydesogestrel]
Solubility in Liquid 1 [1]: ≧8.8 mg/mL | Solubility in Liquid 2 [1]: ≧7.0 mg/mL | Solubility in Liquid 3 [1]: ≧6.1 mg/mL | Solubility in Liquid 4 [1]: ≧6.9 mg/mL | Solubility in Liquid 5 [1]: ≧8.7 mg/mL

levels of ethinyl estradiol in plasma, oral mucosal administration compared to oral ingestion of equivalent amount using a tablet [2]: much higher levels
Compound: C#C[C@]1(O)CC[C@H]2[C@@H]3CCc4cc(O)ccc4[C@H]3CC[C@@]21C [Ethinyl Estradiol, ethinyl estradiol]

levels of etonogestrel in serum, oral mucosal administration compared to oral ingestion of an equivalent amount of desogestrel using a tablet [3]: much higher levels | levels of etonogestrel in serum, oral mucosal administration compared to oral ingestion of equivalent amount of desogestrel using a tablet [2]: much higher levels
Compound: C#C[C@]1(O)CC[C@H]2[C@@H]3CCC4=CC(=O)CC[C@@H]4[C@H]3C(=C)C[C@@]21CC [Etonogestrel, 13-ethyl-11methylene-17β-hydroxy-18,19-dinor-17α-pregnen-3-one]
oral bioavailability [4]: about 80%
